Measured values as given in patent US12018016B2, “Aryl sulfonyl (hydroxy) piperidines as CCR6 inhibitors” (CHEMOCENTRYX, INC., priority 2021, dated 2024).

Biological target: T1, human CCR6 (Homo sapiens, UniProt P51684)
T1 construct: expressed in transfected cells; host or cells: Ba/F3 cells (mouse pro-B line)
T1 sequence (P51684 1-374): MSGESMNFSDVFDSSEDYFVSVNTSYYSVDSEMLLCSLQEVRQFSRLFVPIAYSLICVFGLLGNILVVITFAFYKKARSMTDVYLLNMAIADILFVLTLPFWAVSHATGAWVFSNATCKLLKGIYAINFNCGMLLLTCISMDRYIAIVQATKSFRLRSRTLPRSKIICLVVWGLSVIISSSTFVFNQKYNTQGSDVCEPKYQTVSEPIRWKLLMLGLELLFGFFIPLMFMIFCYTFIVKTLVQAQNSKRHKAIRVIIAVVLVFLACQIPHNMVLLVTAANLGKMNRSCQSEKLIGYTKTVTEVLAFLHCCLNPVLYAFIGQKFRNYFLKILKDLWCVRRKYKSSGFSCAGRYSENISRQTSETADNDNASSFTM
Assay: Migration assay (chemotaxis, ChemoTX)
Assay type: cell-based
Settings: hCCR6-transfected Ba/F3 cells in human serum, migration to recombinant human CCL20 10 nM, 37° C. 45 minutes; read-out: Potency (IC50 value in the migration assay)
Excerpt: A chemotaxis assay can be used to determine the efficacy of potential receptor antagonists at blocking the migration mediated through chemokine receptors, such as CCR6. This assay is routinely performed using the ChemoTX® microchamber system with a 5-μm pore-sized polycarbonate membrane. Chemokine receptor-expressing cells are required for such an assay. In this case, Ba/F3 cells (Palacios et al., Nature, 309:126, 1984) transfected with the gene for human CCR6 under control of the CMV promotor were used. To begin such an assay, hCCR6-transfected Ba/F3 cells are first grown for 24 hr in medium supplemented with sodium butyrate, which increases CCR6 transcription via the CMV promotor. The prepared Ba/F3 cells, are collected by centrifugation at 400×g at room temperature, then suspended at 4 million/ml in human serum. The compound being tested is serially diluted from a maximum final concentration of 1 μM (or an equivalent volume of its solvent (DMSO)) and is then added to the cell/serum mixture. Separately, recombinant human CCL20 (MIP-3α/LARC) at its EC50 concentration (10 nM) is placed in the lower wells of the ChemoTX® plate. The 5-μm (pore size) polycarbonate membrane is placed onto the plate, and 20 μL of the cell/compound mixture is transferred onto each well of the membrane. The plates are incubated at 37° C. for 45 minutes, after which the polycarbonate membranes are removed and 5 μl of the DNA-intercalating dye CyQUANT (Invitrogen, Carlsbad, CA) is added to the lower wells. The amount of fluorescence, corresponding to the number of migrated cells, is measured using a Spectrafluor Plus plate reader (TECAN, San Jose, CA).

| Compound | IC50 [nM] |
| --- | --- |
| 4-(4-(((3S,4R)-3-hydroxy-4-((4-(trifluoromethyl)phenyl)amino)piperidin-1-yl)sulfonyl)phenyl)picolinamide [Compound 81] | < 1 |
| Cc1nnc(-c2cc(-c3ccc(S(=O)(=O)N4CC[C@@H](Nc5ccc(C(F)(F)F)cn5)[C@@H](O)C4)cc3)ccn2)[nH]1 [Compound 64, (3S,4R)-1-((4-(2-(5-methyl-4H-1,2,4-triazol-3-yl)pyridin-4-yl)phenyl)sulfonyl)-4-((5-(trifluoromethyl)pyridin-2-yl)amino)piperidin-3-ol] | 1 to 10 |
| Cn1ccnc1-c1cc(-c2ccc(S(=O)(=O)N3CC[C@@H](Nc4ccc(C(F)(F)F)cn4)[C@@H](O)C3)cc2)ccn1 [Compound 65, (3S,4R)-1-((4-(2-(1-methyl-1H-imidazol-2-yl)pyridin-4-yl)phenyl)sulfonyl)-4-((5-(trifluoromethyl)pyridin-2-yl)amino)piperidin-3-ol] | 10 to 1000 |
| Cc1noc(-c2cc(-c3ccc(S(=O)(=O)N4CC[C@@H](Nc5ccc(C(F)(F)F)cn5)[C@@H](O)C4)cc3)ccn2)n1 [Compound 66, (3S,4R)-1-((4-(2-(3-methyl-1,2,4-oxadiazol-5-yl)pyridin-4-yl)phenyl)sulfonyl)-4-((5-(trifluoromethyl)pyridin-2-yl)amino)piperidin-3-ol] | 1 to 10 |
| Cc1nc(-c2cc(-c3ccc(S(=O)(=O)N4CC[C@@H](Nc5ccc(C(F)(F)F)cn5)[C@@H](O)C4)cc3)ccn2)no1 [Compound 67, (3S,4R)-1-((4-(2-(5-methyl-1,2,4-oxadiazol-3-yl)pyridin-4-yl)phenyl)sulfonyl)-4-((5-(trifluoromethyl)pyridin-2-yl)amino)piperidin-3-ol] | < 1 |
| O=S(=O)(c1ccc(-c2ccnc(-c3nnco3)c2)cc1)N1CC[C@@H](Nc2ccc(C(F)(F)F)cn2)[C@@H](O)C1 [Compound 68, (3S,4R)-1-((4-(2-(1,3,4-oxadiazol-2-yl)pyridin-4-yl)phenyl)sulfonyl)-4-((5-(trifluoromethyl)pyridin-2-yl)amino)piperidin-3-ol] | < 1 |
| Nc1nnc(-c2cc(-c3ccc(S(=O)(=O)N4CC[C@@H](Nc5ccc(C(F)(F)F)cn5)[C@@H](O)C4)cc3)ccn2)o1 [Compound 69, (3S,4R)-1-((4-(2-(5-amino-1,3,4-oxadiazol-2-yl)pyridin-4-yl)phenyl)sulfonyl)-4-((5-(trifluoromethyl)pyridin-2-yl)amino)piperidin-3-ol] | < 1 |
| Cc1cnc(-c2cc(-c3ccc(S(=O)(=O)N4CC[C@@H](Nc5ccc(C(F)(F)F)cn5)[C@@H](O)C4)cc3)ccn2)o1 [Compound 70, (3S,4R)-1-((4-(2-(5-methyloxazol-2-yl)pyridin-4-yl)phenyl)sulfonyl)-4-((5-(trifluoromethyl)pyridin-2-yl)amino)piperidin-3-ol] | < 1 |
| Cn1c(-c2ccc(S(=O)(=O)N3CC[C@@H](Nc4ccc(C(F)(F)F)cn4)[C@@H](O)C3)cc2)cnc1C(N)=O [Compound 71, 5-(4-(((3S,4R)-3-hydroxy-4-((5-(trifluoromethyl)pyridin-2-yl)amino)piperidin-1-yl)sulfonyl)phenyl)-1-methyl-1H-imidazole-2-carboxamide] | < 1 |
| Cn1cc(-c2ccc(S(=O)(=O)N3CC[C@@H](Nc4ccc(C(F)(F)F)cn4)[C@@H](O)C3)cc2)nc1C(N)=O [Compound 72, 4-(4-(((3S,4R)-3-hydroxy-4-((5-(trifluoromethyl)pyridin-2-yl)amino)piperidin-1-yl)sulfonyl)phenyl)-1-methyl-1H-imidazole-2-carboxamide] | 1 to 10 |
| NC(=O)c1cc(-c2ccc(S(=O)(=O)N3CC[C@@H](Nc4ccc(C(F)(F)F)cn4)[C@@H](O)C3)cc2)n[nH]1 [Compound 73, 3-(4-(((3S,4R)-3-hydroxy-4-((5-(trifluoromethyl)pyridin-2-yl)amino)piperidin-1-yl)sulfonyl)phenyl)-1H-pyrazole-5-carboxamide] | 1 to 10 |
| O=C(NO)c1cc(-c2ccc(S(=O)(=O)N3CC[C@@H](Nc4ccc(C(F)(F)F)cn4)[C@@H](O)C3)cc2)ccn1 [Compound 74, N-hydroxy-4-(4-(((3S,4R)-3-hydroxy-4-((5-(trifluoromethyl)pyridin-2-yl)amino)piperidin-1-yl)sulfonyl)phenyl)picolinamide] | 1 to 10 |
| Cc1cnc(C#N)c(C)c1-c1ccc(S(=O)(=O)N2CC[C@@H](Nc3ccc(C(F)(F)F)cn3)[C@@H](O)C2)cc1 [Compound 75, 4-(4-(((3S,4R)-3-hydroxy-4-((5-(trifluoromethyl)pyridin-2-yl)amino)piperidin-1-yl)sulfonyl)phenyl)-3,5-dimethylpicolinonitrile] | < 1 |
| O=S(=O)(c1ccc(-c2cncc(N3CCNCC3)c2)cc1)N1CC[C@@H](Nc2ccc(C(F)(F)F)cn2)[C@@H](O)C1 [Compound 76, (3S,4R)-1-((4-(5-(piperazin-1-yl)pyridin-3-yl)phenyl)sulfonyl)-4-((5-(trifluoromethyl)pyridin-2-yl)amino)piperidin-3-ol] | 1 to 10 |
| N#Cc1n[nH]c2c(F)cc(-c3ccc(S(=O)(=O)N4CC[C@@H](Nc5ccc(C(F)(F)F)cn5)[C@@H](O)C4)cc3)cc12 [Compound 77, 7-fluoro-5-(4-(((3S,4R)-3-hydroxy-4-((5-(trifluoromethyl)pyridin-2-yl)amino)piperidin-1-yl)sulfonyl)phenyl)-1H-indazole-3-carbonitrile] | < 1 |
| Cc1cc(-c2ccc(S(=O)(=O)N3CC[C@@H](Nc4ccc(C(F)(F)F)cn4)[C@@H](O)C3)cc2)cc2c1C(=O)NC2 [Compound 78, 5-(4-(((3S,4R)-3-hydroxy-4-((5-(trifluoromethyl)pyridin-2-yl)amino)piperidin-1-yl)sulfonyl)phenyl)-7-methylisoindolin-1-one] | < 1 |
| COc1cc(-c2ccc(S(=O)(=O)N3CC[C@@H](Nc4ccc(C(F)(F)F)cn4)[C@@H](O)C3)cc2)cc2cn[nH]c(=O)c12 [Compound 79, 6-(4-(((3S,4R)-3-hydroxy-4-((5-(trifluoromethyl)pyridin-2-yl)amino)piperidin-1-yl)sulfonyl)phenyl)-8-methoxyphthalazin-1(2H)-one] | < 1 |
| Cc1cc(-c2ccc(S(=O)(=O)N3CC[C@@H](Nc4ccc(C(F)(F)F)cn4)[C@@H](O)C3)cc2)cc2c1CN(C(=O)N(C)C)C2 [Compound 80, 6-(4-(((3S,4R)-3-hydroxy-4-((5-(trifluoromethyl)pyridin-2-yl)amino)piperidin-1-yl)sulfonyl)phenyl)-N,N,4-trimethylisoindoline-2-carboxamide] | < 1 |
| Cc1cc(C(F)(F)F)cnc1N[C@@H]1CCN(S(=O)(=O)c2ccc(-c3ccnc(C(N)=O)c3)cc2)C[C@@H]1O [Compound 82, 4-[4-[[(3S,4R)-3-hydroxy-4-[[3-methyl-5-(trifluoromethyl)-2-pyridyl]amino]-1-piperidyl]sulfonyl]phenyl]pyridine-2-carboxamide] | < 1 |
| Cc1cc(C(F)(F)F)cnc1N[C@@H]1CCN(S(=O)(=O)c2ccc(-c3cnc(C(N)=O)n3C)cc2)C[C@@H]1O [Compound 83, 5-[4-[[(3S,4R)-3-hydroxy-4-[[3-methyl-5-(trifluoromethyl)-2-pyridyl]amino]-1-piperidyl]sulfonyl]phenyl]-1-methyl-imidazole-2-carboxamide] | < 1 |
| Cc1nnc(-c2cc(-c3ccc(S(=O)(=O)N4CC[C@@H](Nc5ncc(C(F)(F)F)cc5C)[C@@H](O)C4)cc3)ccn2)o1 [Compound 84, (3S,4R)-1-[4-[2-(5-methyl-1,3,4-oxadiazol-2-yl)-4-pyridyl]phenyl]sulfonyl-4-[[3-methyl-5-(trifluoromethyl)-2-pyridyl]amino]piperidin-3-ol] | < 1 |
| N#Cc1cc(C(F)(F)F)cnc1N[C@@H]1CCN(S(=O)(=O)c2ccc(-c3ccnc(C(N)=O)c3)cc2)C[C@@H]1O [Compound 85, 4-(4-(((3S,4R)-4-((3-cyano-5-(trifluoromethyl)pyridin-2-yl)amino)-3-hydroxypiperidin-1-yl)sulfonyl)phenyl)picolinamide] | 10 to 1000 |
| NC(=O)c1cc(-c2ccc(S(=O)(=O)N3CC[C@@H](Nc4ncc(C(F)(F)F)cn4)[C@@H](O)C3)cc2)ccn1 [Compound 86, 4-(4-(((3S,4R)-3-hydroxy-4-((5-(trifluoromethyl)pyrimidin-2-yl)amino)piperidin-1-yl)sulfonyl)phenyl)picolinamide] | 10 to 1000 |
| NC(=O)c1cc(-c2ccc(S(=O)(=O)N3CC[C@@H](Nc4ccc(Cl)cn4)[C@@H](O)C3)cc2)ccn1 [Compound 87] | < 1 |
